The record followed here is patent US11905288B1, “Pyrido[3″,4″:4′, 5′]pyrrolo[3′,2′:4,5]imidazole[1,2-c]pyrimidine compounds as CK2 inhibitors” (KING FAISAL UNIVERSITY, priority 2023, dated 2024).

One test deals with H1299 (lung). Put plainly: In vitro cytotoxic activity assay (MTT), H1299. Type of test: cell-based. The following applies: Homo sapiens, NCI-H1299; H1299 (lung) cells, exposed for 96 hours; read-out: IC50, concentration eliciting a 50% inhibition of cell proliferation. As for the experimental part:
(§1) Compounds 1-15 were screened for their in vitro cytotoxic activity utilizing a 3-(4,5-dimethyl-thiazol-2-yl)-2,5-diphenyltetrazolium bromide (MTT) assay against selected cancer human cell lines consisting of PC3 (prostate), HCT116 (colon), A375 (melanoma), H1299 (lung), MIAPaCa-2 (pancreas), HL60 (leukemia), MCF7 (breast), MDA-MB-231 (breast) (T. Mosmann, J. Immunol. Meth., 1983, 65, 55-63). The cells were cultured at 37° C. in RMPI1640 medium supplemented with 10% fetal bovine serum, 50 IU/mL penicillin, and 50 μg/mL streptomycin in a 5% CO2 incubator. All cells were sub-cultured 3 times/week by trypsinisation. Viable cells were seeded and allowed to adhere for 12 h before a test drug was added in 96-well plates at an initial density of 1.0×10^5 cells/mL. Tumour cell lines were separately exposed to various concentrations of the tested compounds followed by incubation at a temperature of 37° C. during 96 h inside a medium of fresh RMPI 1640. Cells were subsequently incubated at 37° C. using MIT at 0.5 mg/mL during 4 h. After removal of supernatant, formazan crystals were dissolved in isopropanol and the optical density was measured at 570 nm. CX-4945 was used as a positive control.

Test [1] addresses T1, recombinant human CK2 (RRββ-holoenzyme) (Homo sapiens, UniProt P68400).
T1 construct: purchased Millipore
Nature of the test: CK2 Kinase Assay (33P-ATP, filter plate). Type of test: biochemical. The following applies: final ATP concentration 15 μM, 10 min at 30° C.; read-out: protein kinase CK2 activity IC50. As for the experimental part: CK2 Kinase Assay was conducted using the protocol as described in Pierre F. et al; J. Med. Chem. 2011, 54, 635-654. The tested compounds in aqueous solution were added at a volume of 10 μL to a reaction mixture comprising 10 μL of assay dilution buffer (ADB; 20 mM MOPS, pH 7.2, 25 mM β-glycerol phosphate, 5 mM EGTA, 1 mM sodium orthovanadate, and 1 mM dithiothreitol), 10 μL of substrate peptide (RRRDDDSDDD, dissolved in ADB at a concentration of 1 mM), 10 μL of recombinant human CK2 (RRββ-holoenzyme, 25 ng dissolved in ADB; Millipore). Reactions were initiated by the addition of 10 μL of ATP solution (90% 75 mMMgCl2, 75 μM ATP (final ATP concentration: 15 μM) dissolved in ADB; 10% [γ-33P] ATP (stock 1 mCi/100 μL; 3000 Ci/mmol (Perkin-Elmer) and maintained for 10 min at 30° C. The reactions were quenched with 100 μL of 0.75% phosphoric acid and then transferred to and filtered through a phosphor cellulose filter plate (Millipore). After washing each well five times with 0.75% phosphoric acid, the plate was dried under vacuum for 5 min and, following the addition of 15 μL of scintillation fluid to each well, the residual radioactivity was measured using a Wallac luminescence counter. The IC50 values were derived from eight concentrations of test inhibitors.

Another test deals with HCT116 (colon). Put plainly: In vitro cytotoxic activity assay (MTT), HCT116. Type of test: cell-based. The following applies: Homo sapiens, HCT-116; HCT116 (colon) cells, exposed for 96 hours; read-out: IC50, concentration eliciting a 50% inhibition of cell proliferation. As for the experimental part:
as §1

The next test deals with PC3 (prostate). Nature of the test: In vitro cytotoxic activity assay (MTT), PC3. Format: cell-based. The settings on record: Homo sapiens, Prostate cell; PC3 (prostate) cells, exposed for 96 hours; read-out: IC50, concentration eliciting a 50% inhibition of cell proliferation. As for the experimental part: as §1
Another test has as its system MDA-MB-231 (breast). Put plainly: In vitro cytotoxic activity assay (MTT), MDA-MB-231. Format: cell-based. The settings on record: Homo sapiens; MDA-MB-231 (breast) cells, exposed for 96 hours; read-out: IC50, concentration eliciting a 50% inhibition of cell proliferation. As for the experimental part:
as §1

For the next test, the system named is MIAPaCa-2 (pancreas). Put plainly: In vitro cytotoxic activity assay (MTT), MIAPaCa-2. Type of test: cell-based. The settings on record: Homo sapiens, MIA PaCa-2; MIAPaCa-2 (pancreas) cells, exposed for 96 hours; read-out: IC50, concentration eliciting a 50% inhibition of cell proliferation. As for the experimental part:
as §1

Another test has as its system HL60 (leukemia). Put plainly: In vitro cytotoxic activity assay (MTT), HL60. Format: cell-based. The settings on record: Homo sapiens, HL-60; HL60 (leukemia) cells, exposed for 96 hours; read-out: IC50, concentration eliciting a 50% inhibition of cell proliferation. As for the experimental part: as §1
The test system of a further test is A375 (melanoma). Nature of the test: In vitro cytotoxic activity assay (MTT), A375. Format: cell-based. The settings on record: Homo sapiens, A-375; A375 (melanoma) cells, exposed for 96 hours; read-out: IC50, concentration eliciting a 50% inhibition of cell proliferation. On the procedure: as §1
The next test relates to MCF7 (breast). Put plainly: In vitro cytotoxic activity assay (MTT), MCF7. Format: cell-based. The settings on record: Homo sapiens; MCF7 (breast) cells, exposed for 96 hours; read-out: IC50, concentration eliciting a 50% inhibition of cell proliferation. As for the experimental part: as §1

T1 sequence (P68400 whole entry): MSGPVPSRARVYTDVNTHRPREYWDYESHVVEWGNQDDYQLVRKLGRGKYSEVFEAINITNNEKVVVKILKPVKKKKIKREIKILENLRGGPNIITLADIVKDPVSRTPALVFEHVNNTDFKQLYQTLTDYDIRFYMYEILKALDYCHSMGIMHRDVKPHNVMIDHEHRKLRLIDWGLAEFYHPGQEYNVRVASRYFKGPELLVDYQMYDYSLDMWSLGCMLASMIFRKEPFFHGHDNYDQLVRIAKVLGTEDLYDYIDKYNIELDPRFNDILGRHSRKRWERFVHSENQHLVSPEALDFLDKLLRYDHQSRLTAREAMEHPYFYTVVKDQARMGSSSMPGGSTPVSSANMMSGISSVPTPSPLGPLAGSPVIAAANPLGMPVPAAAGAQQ
T1 sequence (P67870 whole entry partner): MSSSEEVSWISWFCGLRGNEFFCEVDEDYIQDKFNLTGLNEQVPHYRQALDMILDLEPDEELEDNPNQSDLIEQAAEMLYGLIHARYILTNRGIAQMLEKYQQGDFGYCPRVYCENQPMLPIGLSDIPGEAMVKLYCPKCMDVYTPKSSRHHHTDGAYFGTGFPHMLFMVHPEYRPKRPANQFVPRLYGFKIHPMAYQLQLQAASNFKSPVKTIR

With `Clc1cccc(-n2c3ccncc3c3nc4ccncn4c32)c1` [Compound 1, 5-(3-chlorophenyl)-5H-pyrido[3″,4″:4′,5′]pyrrolo[3′,2′:4,5]imidazo[1,2-c]pyrimidine], the IC50 in the test with H1299 (lung) turned out to be 2600 nM; in test [1] it was 56 nM; in the test with HCT116 (colon) it was 2100 nM; in the test with PC3 (prostate) it was 1300 nM; with MDA-MB-231 (breast) it was 2400 nM; with MIAPaCa-2 (pancreas), 900 nM. The IC50 was determined as 2800 nM in the test on HL60 (leukemia), 3700 nM in the test with A375 (melanoma) and 4100 nM with MCF7 (breast).
